Among the data in ChEMBL document CHEMBL1255548, “Novel bisphosphonate inhibitors of the human farnesyl pyrophosphate synthase” (Bioorg Med Chem Lett, 2010) are inhibition and IC50 values, retold here.

Bounds are passed on as bounds.

In assay [1] the target is T1, Farnesyl pyrophosphate synthase (Homo sapiens) (UniProt P14324).
T1 sequence (whole entry): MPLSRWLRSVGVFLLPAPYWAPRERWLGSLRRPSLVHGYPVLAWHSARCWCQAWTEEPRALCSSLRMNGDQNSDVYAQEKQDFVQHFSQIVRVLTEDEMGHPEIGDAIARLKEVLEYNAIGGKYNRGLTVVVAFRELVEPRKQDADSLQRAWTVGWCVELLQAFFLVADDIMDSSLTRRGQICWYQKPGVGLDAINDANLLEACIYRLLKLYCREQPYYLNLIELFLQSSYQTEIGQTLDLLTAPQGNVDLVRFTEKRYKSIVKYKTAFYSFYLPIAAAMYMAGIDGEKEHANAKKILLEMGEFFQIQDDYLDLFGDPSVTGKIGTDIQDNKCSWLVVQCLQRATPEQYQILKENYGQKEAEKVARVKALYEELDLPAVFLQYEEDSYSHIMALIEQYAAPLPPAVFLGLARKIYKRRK
Briefly: Inhibition of N-terminal His-tagged human FPPS expressed in Escherichia coli at 10 uM.

In assay [2] the target is T2, Farnesyl pyrophosphate synthase (Homo sapiens, UniProt P14324).
T2 sequence (P14324 whole entry): T1 sequence (whole entry)
Briefly: Inhibition of N-terminal His-tagged human FPPS expressed in Escherichia coli.

In assay [3] the target is T1, Farnesyl pyrophosphate synthase (Homo sapiens). Briefly: Inhibition of N-terminal His-tagged human FPPS expressed in Escherichia coli at 1 uM.

What is called inhibition is the relative decrease from the control value, in per cent. Low values mean little suppression, high ones strong suppression. Molecule `Cc1noc(C)c1-c1cncc(CC(F)(P(=O)(O)O)P(=O)(O)O)c1` showed an inhibition in assay [1] of 86%.

By IC50 is commonly meant the point on the concentration scale where inhibition reaches its midpoint. The molecule `O=P(O)(O)C(F)(Cc1cncc(-c2cn[nH]c2)c1)P(=O)(O)O` registered a 50% inhibitory concentration (IC50) in assay [2] of 650 nM. Besides, in assay [3], the inhibition was > 50%.

Turning to `O=P(O)(O)C(F)(Cc1cncc(-c2cccc3[nH]ncc23)c1)P(=O)(O)O`, the inhibition in assay [1] was determined as 81%.

In assay [2], `O=P(O)(O)C(F)(Cc1cncc(-c2ccc3[nH]ncc3c2)c1)P(=O)(O)O` registered a concentration for half-maximal inhibition (IC50) of 700 nM. In addition, the inhibition in assay [3] is > 50%.
